Reference: patent publication US20170304288A1, “Formulations of Methionine Aminopeptidase Inhibitors for Treating Infectious Diseases” (Texas Southern University, priority 2013, published 2017)
In brackets after ≈: the same amount, converted by molar mass. Where two headings read alike, the source gives them in different places.

Experiments:
EfMetAP1 = target: T1, EfMetAP1 (Enterococcus faecalis, UniProt Q832M5); assay: EfMetAP1 inhibition, coupled methionine-proline aminopeptidase assay; type: biochemical, E. faecalis
T1 sequence (Q832M5 1-254): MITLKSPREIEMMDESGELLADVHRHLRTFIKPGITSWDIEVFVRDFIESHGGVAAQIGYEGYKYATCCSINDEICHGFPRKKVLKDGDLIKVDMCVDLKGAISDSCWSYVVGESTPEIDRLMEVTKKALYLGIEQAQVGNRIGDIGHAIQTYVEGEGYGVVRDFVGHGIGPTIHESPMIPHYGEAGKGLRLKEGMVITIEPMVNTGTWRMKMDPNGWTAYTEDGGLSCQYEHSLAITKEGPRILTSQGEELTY
Procedure: 175,000 compounds were screened against EfMetAP1, using the coupled methionine-proline aminopeptidase spectrophotometric assay (FIG. 7A). The primary screen was performed at final concentrations of 30 μM in 384-well plates using a titertek instrument with liquid handling capabilities coupled to a spectrophotometer. The compounds were dissolved in dimethylsulfoxide (DMSO) and the total reaction volume was 50 μL where each reaction contained 40 mM Hepes buffer (pH 7.5), 100 mM NaCl, 100 μg/mL BSA, 0.1 U/mL ProAP, 1.5 mM CoCl2, 600 μM substrate (Met-Pro-pNA), and 1.38 μM EfMetAP1. The Enzyme was pre-incubated with compounds for 20 min at room temperature followed by addition of substrate. The reaction was incubated at room temperature for 30 min and monitored at 405 nm on a spectrophotometer. […] The background hydrolysis was corrected and the data was fitted against the sigmoidal-dose response (variable slope) equation using GraphPad prism software.

HsMetAP1 = HsMetAP1 (Homo sapiens, UniProt P53582); assay: MetAP enzyme inhibition IC50; type: biochemical
Procedure: (§1) The enzyme was pre-incubated with compounds for 20 minutes at room temperature followed by addition of substrate. The reaction was incubated at room temperature for 30 min and monitored at 405 nm on a spectrophotometer. The background hydrolysis was subtracted and the data was fitted to a four-parameter logistic (variable slope) equation using GraphPad Prism software.

HsMetAP2 = HsMetAP2 (Homo sapiens, UniProt P50579); assay: MetAP enzyme inhibition IC50; type: biochemical
HsMetAP2, sequence (P50579 whole entry): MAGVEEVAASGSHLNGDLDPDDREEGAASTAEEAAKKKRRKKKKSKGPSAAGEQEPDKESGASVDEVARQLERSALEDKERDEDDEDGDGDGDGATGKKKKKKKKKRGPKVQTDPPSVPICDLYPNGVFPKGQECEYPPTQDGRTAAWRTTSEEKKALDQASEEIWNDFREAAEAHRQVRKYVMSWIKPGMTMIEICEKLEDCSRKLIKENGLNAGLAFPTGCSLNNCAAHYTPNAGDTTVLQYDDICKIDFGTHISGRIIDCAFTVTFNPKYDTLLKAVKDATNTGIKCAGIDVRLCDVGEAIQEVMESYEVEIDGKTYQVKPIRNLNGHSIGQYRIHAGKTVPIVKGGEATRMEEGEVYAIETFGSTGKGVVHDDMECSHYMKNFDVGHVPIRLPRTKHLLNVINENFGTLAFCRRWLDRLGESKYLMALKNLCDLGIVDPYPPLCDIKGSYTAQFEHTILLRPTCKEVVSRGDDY
Procedure: as §1

LmMetAP1 = target: T2, LmMetAP1 (Leishmania major, UniProt Q4QDG7); assay: LmMetAP1 enzyme inhibition (l-Met-pNA); type: biochemical
T2 sequence (Q4QDG7 1-401): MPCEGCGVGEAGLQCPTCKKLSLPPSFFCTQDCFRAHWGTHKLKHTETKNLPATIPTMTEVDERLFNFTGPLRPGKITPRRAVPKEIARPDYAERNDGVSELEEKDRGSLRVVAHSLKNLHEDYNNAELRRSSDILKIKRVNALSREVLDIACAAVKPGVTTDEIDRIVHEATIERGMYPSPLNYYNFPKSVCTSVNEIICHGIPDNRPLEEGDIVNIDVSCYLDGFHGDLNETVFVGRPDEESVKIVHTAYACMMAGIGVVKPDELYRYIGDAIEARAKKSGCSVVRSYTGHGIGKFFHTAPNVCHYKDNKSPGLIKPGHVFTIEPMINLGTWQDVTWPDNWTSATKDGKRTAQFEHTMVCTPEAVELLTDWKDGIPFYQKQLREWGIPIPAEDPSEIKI
Text: After cloning, overexpressing and purifying the protein to near homogeneity, the chromogenic substrate I-methionine-p-nitroanalide (I-Met-pNA) (Sigma) was used to determine inhibition of the enzyme using various compounds (Mitra et al. 2006).

[1] = tested on: Wild-type L. major promastigotes; assay: Leishmania major luciferase assay, wild type promastigotes; settings: read-out: Wild-type L. major promastigotes EC50
Procedure: Promastigote forms of L. major strain Friedlin clone V1 expressing firefly luciferase were grown in M199 medium supplemented with hemin and 10% fetal bovine serum (FBS) inactivated at 56° C. for 30 minutes and treated with 50 ng/mL streptothricin neosulfate for maintenance of LUC gene.
(§2) Compounds were screened against L. major strain friedlin clone V1 promastigotes expressing firefly luciferase at concentrations ranging from 100 μM-780 nM in a 96 well plate. These experiments were done in triplicates using L. major media and 10^6 parasites per well. The plates were incubated for 24, 48, 72 and 96 hours at 28° C. Amphotericin B (AB) was used as a positive control at 5 μM as a comparison to the leishmanicidal activity of the inhibitors. The inhibitory effects of the compounds were assessed by monitoring parasite survival through luciferase activity. The substrate 5′-fluoroluciferin (ONE-Glo Luciferase Assay System, Promega, Madison, Wis.) was added according to the manufacturer's protocol after each time point. The plates were read using a luminometer (Luminoskan, Thermo Scientific, Rockford, Ill.). Data was analyzed using GraphPad Prism Software (GraphPad Software, Inc., La Jolla, Calif.).

[2] = tested on: L. major promastigotes over-expressing LmMetAP1; assay: Leishmania major luciferase assay, promastigotes over-expressing LmMetAP1; type: cell-based; settings: read-out: L. major promastigotes over-expressing LmMetAP1 EC50
Procedure: as §2
LmMetAP1 was cloned in the Leishmania expression vector pXG, and parasites were transfected. The parasites overexpressing LmMetAP1 were selected for and cloned.

HIV-1 transcription = settings: Debebe et. al. 2007; cited from earlier work
M. tuberculosis CDC 1551 = assay: Minimum Inhibitory Concentration in replicating M. tuberculosis; type: cell-based, Mycobacterium tuberculosis; settings: replicating culture; for MIC: Mycobacterium tuberculosis, CDC1551, read-out: Minimum Inhibitory Concentration Wild-type M. tuberculosis Strain CDC1551
HIV-1 (89.6 strain) = assay: microbe, parasite or virus in culture; type: cell-based; settings: for inhibition of HIV-1 p24 antigen production: HIV-1 infected PBMC, ELISA; for inhibitory concentration equivalent to negative control (blank): p24 ELISA; for IC50: Human immunodeficiency virus 1, PBMC, read-out: concentration required for 50% inhibition of HIV1 p24 produced, primary screen, preliminary
M. tuberculosis H37Ra = assay: Activity against dormant (aged non-growing) M. tuberculosis, XTT; type: cell-based, Mycobacterium tuberculosis; settings: for MIC: Mycobacterium tuberculosis, H37RA, read-out: MIC dormant M. tuberculosis Strain H37Ra
Procedure: The activity of the compounds in aged non-growing M. tuberculosis was achieved using a perister model at concentrations […] and monitored for three weeks. Briefly, 2 month old M. tuberculosis H37Ra culture was grown in 7H9 medium (Difco) with 10% albumin dextrose catalase (ADC) and 0.05% Tween 80. […] The compound was diluted from a 10 mM (in DMSO) to 10 μM (final concentration) and incubated with the bacilli in […] 7H9 medium (pH 5.5) without ADC in a 96-well plate for three days without shanking under 1% oxygen in a hypoxic chamber. This assay was performed in duplicates with Rifampin (5 mg/mL). Following a 3 day drug exposure, bacilli viability was determined by adding […] of 1 mg/mL of XTT (2,3-bis-(2-methoxy-4-nitro-5-sulfophenyl)-2H-tetrazolium-5-carboxanilide) and incubated at 37° C. for up to 7 days. The 96 well plates were then read at OD 485 nm.

E. faecalis V583 [3] = assay: Liquid-based C. elegans infection model, survival
E. faecalis OG1RF [4] = assay: Assay of E. faecalis inhibition (MIC) in BHI culture; settings: Enterococcus faecalis, read-out: Minimum Inhibitory Concentration MIC30 OG1RF
E. faecalis OG1RF [5] = assay: Liquid-based C. elegans infection model, survival; type: in vivo, Enterococcus faecalis; settings: C. elegans
E. faecalis V583 [6] = assay: Assay of E. faecalis inhibition (MIC) in BHI culture
M. bovis BCG = type: cell-based, Mycobacterium bovis; settings: for CFU from cellular lysates (intracellular M. bovis BCG): 7 d p.i., RIF 5.0 μg/mL, INH 0.1 μg/mL
MtMetAP1c = MtMetAP1c (Mycobacterium tuberculosis, UniProt P9WK19); assay: MetAP enzyme inhibition IC50 (Met-Pro-pNA coupled assay); type: biochemical
MtMetAP1c, sequence (P9WK19 whole entry): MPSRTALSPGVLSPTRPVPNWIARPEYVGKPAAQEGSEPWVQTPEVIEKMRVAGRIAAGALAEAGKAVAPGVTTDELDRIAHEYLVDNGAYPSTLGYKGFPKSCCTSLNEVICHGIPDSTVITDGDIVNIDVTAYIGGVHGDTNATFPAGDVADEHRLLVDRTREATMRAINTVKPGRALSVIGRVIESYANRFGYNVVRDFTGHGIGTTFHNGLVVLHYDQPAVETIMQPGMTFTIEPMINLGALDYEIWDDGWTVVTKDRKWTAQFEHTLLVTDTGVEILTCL
Procedure: A primary high throughput screen was conducted using MAP-C2 microplate processor (Titertek Instruments, Inc., Huntsville, Ala. USA). A library of 175,000 compounds at 30 μM were assayed in a 384 well plates using a dipeptide chromogenic substrate, methionine-proline coupled to p-Nitroaniline (Met-Pro-pNA). Each compound was dissolved in DMSO and stored at −20° C. until use. The total reaction volume was 50 μL, and each reaction contained 40 mM HEPES buffer (pH 7.5), 100 mM NaCl, […], 0.1 U/mL ProAP, 1.5 mM CoCl2, […] (Met-Pro-pNA), and 252 nM MtMetAP1c. The enzyme was pre-incubated with compounds for 20 minutes at room temperature followed by addition of […]. The reaction was then incubated at room temperature for 30 min and monitored at 405 nm on a spectrophotometer.
as §1

MtMetAP1a = MtMetAP1a (Mycobacterium tuberculosis, UniProt P9WK21); assay: as above; type: biochemical
MtMetAP1a, sequence (P9WK21 whole entry): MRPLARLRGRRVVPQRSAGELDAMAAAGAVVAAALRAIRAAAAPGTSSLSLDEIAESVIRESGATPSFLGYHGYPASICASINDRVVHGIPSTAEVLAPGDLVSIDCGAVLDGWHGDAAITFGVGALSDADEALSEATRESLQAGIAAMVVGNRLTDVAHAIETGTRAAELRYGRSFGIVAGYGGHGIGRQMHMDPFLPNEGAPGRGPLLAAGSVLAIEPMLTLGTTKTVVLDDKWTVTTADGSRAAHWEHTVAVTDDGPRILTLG

C. elegans = assay: Toxicity in non-infected C. elegans; settings: 10 μg/mL

CC(=O)Oc1c(Cl)cc(Cl)c2cccnc12
IC50 (EfMetAP1): 14.6 µM

O=C(N/N=C/c1c(O)ccc2ccccc12)c1ccncc1 [Compound 1, 2-hydroxy-1-naphthylaldehyde isonicotinoyl hydrazone]
IC50 (HsMetAP1): 315 µM
IC50 (HsMetAP2): 146 µM
IC50 (LmMetAP1; read-out: MetAP IC50 LmMetAP1): 10 to 100 µM
EC50 [1]: 0.64 µM
EC50 [2]: > 10 µM
IC50 (HIV-1 transcription): 2 µM
MIC (M. tuberculosis CDC 1551): < 10 µg/mL
inhibition of HIV-1 p24 antigen production (HIV-1 (89.6 strain)): inhibited the production of HIV-1 p24 antigen in a dose response manner
inhibitory concentration equivalent to negative control (blank) (HIV-1 (89.6 strain)): 274.0 nM
concentration that perturbed the growth of aged non-growing Mtb bacilli (M. tuberculosis H37Ra; XTT): 1.82 µg/mL

Oc1ccccc1/C=N/Nc1ncnc2sc3c(c12)CCCC3 [Compound 2, 2-{(E)-[2-(5,6,7,8-tetrahydro[1]benzothieno[2,3-d]pyrimidin-4-yl)hydrazinylidene]methyl}phenol]
IC50 (LmMetAP1): > 2.5 µM
EC50 [1]: 0.375 µM
EC50 [2]: 9 µM
MIC (M. tuberculosis CDC 1551): < 10 µg/mL
inhibition of HIV-1 p24 antigen production (HIV-1 (89.6 strain)): inhibited p24 antigen productions in a dose dependent manner
inhibitory concentration equivalent to negative control (blank) (HIV-1 (89.6 strain)): 234.0 nM

Cc1nc(-c2ccccn2)nc(N(C)Cc2ccccc2)c1Cl [Compound 3, N-benzyl-5-chloro-N,6-dimethyl-2-(pyridin-2-yl)pyrimidin-4-amine]
IC50 (LmMetAP1): > 1 µM
EC50 [1]: 0.243 µM
EC50 [2]: 5 µM
MIC (M. tuberculosis CDC 1551): < 5 µg/mL
inhibition of HIV-1 p24 antigen production (HIV-1 (89.6 strain)): inhibited p24 antigen productions in a dose dependent manner

Clc1cc2c(c3ncccc13)OCN(C1CCCCC1)C2 [Compound 8, 6-chloro-3-cyclohexyl-3,4-dihydro-2H-[1,3]oxazino[5,6-h]quinolin]
MPC (Minimum Protective Concentration) V583 (E. faecalis V583 [3]): 4e-11 µg/mL
IC50 (EfMetAP1): 5.24 µM
IC50 (HIV-1 (89.6 strain)): > 3.75 µM
MIC (E. faecalis OG1RF [4]): 5 to 10 µg/mL (≈ 16.5 to 33 µM)
MPC (Minimum Protective Concentration) OG1RF (E. faecalis OG1RF [5]): 4e-11 µg/mL
MmaxPC (Maximum Protective Concentration) OG1RF (E. faecalis OG1RF [5]): 4e-08 µg/mL
Minimum Inhibitory Concentration MIC30 V583 (E. faecalis V583 [6]): 0.50 to 1.50 µg/mL
MIC (E. faecalis V583 [6]; Enterococcus faecalis, V583, read-out: Minimum Inhibitory Concentration MIC30 V583): 0.5 to 1.5 µg/mL (≈ 1.65 to 4.95 µM)

NNC(=O)c1ccncc1 [Isoniazid, reference compound]
CFU from cellular lysates (intracellular M. bovis BCG) (M. bovis BCG): dramatically reduced CFU
IC50 (HIV-1 (89.6 strain)): > 2 µM

CO[C@H]1/C=C/O[C@@]2(C)Oc3c(C)c(O)c4c(O)c(c(/C=N/N5CCN(C)CC5)c(O)c4c3C2=O)NC(=O)/C(C)=C\C=C\[C@H](C)[C@H](O)[C@@H](C)[C@@H](O)[C@@H](C)[C@H](OC(C)=O)[C@@H]1C [RIF, Rifampicin]
CFU from cellular lysates (intracellular M. bovis BCG) (M. bovis BCG): dramatically reduced CFU
intracellular BCG by flow cytometry (M. bovis BCG; macrophages, 7 days): Reduction

O=C(N/N=C/c1c(O)ccc2ccccc12)c1ccncc1 [drawing 22]
IC50 (MtMetAP1c): 5.3 µM
IC50 (HsMetAP1): 315 µM
IC50 (HsMetAP2): 146 µM
Minimum Inhibitory Concentration Wild-type M. tuberculosis Strain CDC1551 (M. tuberculosis CDC 1551): <10.0 µg/mL
IC50 (MtMetAP1a): 4.9 µM

Oc1ccccc1/C=N/Nc1ncnc2sc3c(c12)CCCC3 [drawing 23]
IC50 (MtMetAP1c): < 30 µM
Minimum Inhibitory Concentration Wild-type M. tuberculosis Strain CDC1551 (M. tuberculosis CDC 1551): <10.0 µg/mL
IC50 (MtMetAP1a): < 30 µM

Cc1nc(-c2ccccn2)nc(N(C)Cc2ccccc2)c1Cl [drawing 24]
Minimum Inhibitory Concentration Wild-type M. tuberculosis Strain CDC1551 (M. tuberculosis CDC 1551): <5.0 µg/mL

O=C(N/N=C/c1c(O)ccc2ccccc12)c1ccncc1 [drawing 25]
MIC (M. tuberculosis H37Ra): 6.25 µM (≈ 1.82 µg/mL)

Oc1ccccc1/C=N/Nc1ncnc2sc3c(c12)CCCC3 [drawing 26]
MIC (M. tuberculosis H37Ra): 25 µM (≈ 8.11 µg/mL)

Oc1c(Br)cc(Cl)c2cccnc12 [drawing 36]
IC50 (EfMetAP1): 12 µM

Oc1c(I)cc(Cl)c2cccnc12 [drawing 38]
IC50 (EfMetAP1): 18.4 µM

CN(C)[C@@H]1C(O)=C(C(N)=O)C(=O)[C@@]2(O)C(O)=C3C(=O)c4c(O)cccc4[C@@](C)(O)[C@H]3C[C@@H]12 [tetracycline]
survival of non-infected animals (C. elegans): did not decrease survival
